ChEMBL document CHEMBL1201862, “PubChem BioAssay data set” (2004)
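Assay format: 96-well plates, 48-hour exposure. At the GI50, growth is halved.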 Activity calls are given as the source filed them. Cut-off read from the data, not from the text of the source: active = GI50 up to about 1.1 µM and inactive = higher.

Assays:
Test in all cases: DTP human tumour cell line panel, 48 h
NCI-H226 = test system: NCI-H226
NCI/ADR-RES = test system: NCI/ADR-RES
SW-620 = test system: SW-620
A498 = test system: A498
NCI-H522 = test system: NCI-H522
KM12 = test system: KM12
PC-3 = test system: PC-3
CAKI-1 = test system: CAKI-1
SNB-19 = test system: SNB-19
T47D = test system: T47D
COLO 205 = test system: COLO 205
UACC-62 = test system: UACC-62
SF-295 = test system: SF-295
OVCAR-5 = test system: OVCAR-5
SN12C = test system: SN12C
Malme-3M = test system: Malme-3M
786-0 = test system: 786-0
Hs-578T = test system: Hs-578T
SF-268 = test system: SF-268
HCT-116 = test system: HCT-116
SK-OV-3 = test system: SK-OV-3
NCI-H23 = test system: NCI-H23
BT-549 = test system: BT-549
HOP-62 = test system: HOP-62
MCF7 = test system: MCF7
SK-MEL-2 = test system: SK-MEL-2
HOP-92 = test system: HOP-92
SK-MEL-5 = test system: SK-MEL-5
HT-29 = test system: HT-29
TK-10 = test system: TK-10
OVCAR-3 = test system: OVCAR-3
A549 = test system: A549
U-251 = test system: U-251
SK-MEL-28 = test system: SK-MEL-28
RXF 393 = test system: RXF 393
IGROV-1 = test system: IGROV-1
K562 = test system: K562
UACC-257 = test system: UACC-257
SR = test system: SR
UO-31 = test system: UO-31
CCRF-CEM = test system: CCRF-CEM
MOLT-4 = test system: MOLT-4
HCT-15 = test system: HCT-15
LOX IMVI = test system: LOX IMVI
MDA-MB-435 = test system: MDA-MB-435
DU-145 = test system: DU-145
EKVX = test system: EKVX
M14 = test system: M14
HL-60 = test system: HL-60
MDA-N = test system: MDA-N
SF-539 = test system: SF-539
OVCAR-8 = test system: OVCAR-8
HCC 2998 = test system: HCC 2998
ACHN = test system: ACHN
RPMI-8226 = test system: RPMI-8226
NCI-H460 = test system: NCI-H460
MDA-MB-231 = test system: MDA-MB-231
OVCAR-4 = test system: OVCAR-4
SNB-75 = test system: SNB-75

Measured: GI50

O=[N+]([O-])c1ccc(Oc2c(Cl)cc(S(=O)(=O)N/C(=N\O)Nc3ccc(Cl)cc3)cc2Cl)cc1
11.2 µM: HCT-15
inactive: NCI-H226 14 µM | NCI/ADR-RES 12.6 µM | SW-620 13.1 µM | A498 10.4 µM | NCI-H522 3.15 µM | KM12 13.5 µM | PC-3 10.4 µM | CAKI-1 5.57 µM | SNB-19 15.2 µM | T47D 7.98 µM | COLO 205 15.1 µM | UACC-62 11.5 µM | SF-295 13.1 µM | OVCAR-5 7.66 µM | SN12C 12.5 µM | Malme-3M 14.8 µM | 786-0 11.2 µM | Hs-578T 14.6 µM | SF-268 12.5 µM | HCT-116 10.5 µM | SK-OV-3 15.7 µM | NCI-H23 9.98 µM | BT-549 12 µM | HOP-62 15.2 µM | MCF7 7 µM | SK-MEL-2 10.9 µM | HOP-92 2.31 µM | SK-MEL-5 9.44 µM | HT-29 14.4 µM | TK-10 11.2 µM | OVCAR-3 5.87 µM | A549 13.6 µM | U-251 13 µM | SK-MEL-28 13.9 µM | RXF 393 13.5 µM | IGROV-1 14 µM | K562 13.8 µM | UACC-257 10.6 µM | SR 4.02 µM | UO-31 5.79 µM | CCRF-CEM 8.22 µM | MOLT-4 6.11 µM | LOX IMVI 11.1 µM | MDA-MB-435 13.9 µM | DU-145 15.1 µM | EKVX 11.9 µM | M14 12.6 µM | HL-60 2.47 µM | MDA-N 12 µM | SF-539 13.5 µM | OVCAR-8 12.6 µM | HCC 2998 4.1 µM | ACHN 11.6 µM | RPMI-8226 5.38 µM | NCI-H460 11.6 µM | MDA-MB-231 11 µM | OVCAR-4 3.94 µM

CC(=O)Oc1ccc2c(c1)c1c(=O)oc(N(C)C)nc1n2Cc1ccccc1
inactive: NCI-H226 > 80.4 µM | NCI/ADR-RES 34.8 µM | SW-620 81.1 µM | A498 > 41.1 µM | NCI-H522 12.8 µM | KM12 56.6 µM | PC-3 > 61.4 µM | SNB-19 > 100 µM | T47D 29.7 µM | COLO 205 > 56.4 µM | UACC-62 28.4 µM | SF-295 47.9 µM | OVCAR-5 > 100 µM | SN12C > 100 µM | Malme-3M 47.9 µM | 786-0 50.9 µM | Hs-578T > 53.3 µM | SF-268 37.1 µM | SNB-75 > 60.3 µM | HCT-116 39.9 µM | SK-OV-3 > 100 µM | NCI-H23 97.5 µM | BT-549 37.2 µM | HOP-62 > 59.3 µM | MCF7 25.2 µM | SK-MEL-2 > 76.6 µM | HOP-92 19.5 µM | SK-MEL-5 42 µM | HT-29 64 µM | TK-10 > 100 µM | OVCAR-3 55.1 µM | A549 48.4 µM | U-251 39 µM | SK-MEL-28 > 100 µM | RXF 393 52.5 µM | IGROV-1 > 95.1 µM | K562 39.4 µM | UACC-257 > 86.5 µM | SR 43.1 µM | UO-31 10.8 µM | CCRF-CEM 55.6 µM | MOLT-4 34 µM | LOX IMVI 49.7 µM | MDA-MB-435 46.2 µM | DU-145 > 100 µM | EKVX > 100 µM | M14 > 78.7 µM | HL-60 23.6 µM | MDA-N > 71.4 µM | SF-539 > 71.9 µM | OVCAR-8 57.8 µM | HCC 2998 > 100 µM | ACHN 45.3 µM | RPMI-8226 > 65 µM | NCI-H460 52.2 µM | MDA-MB-231 > 75.7 µM | OVCAR-4 57.9 µM
37.9 µM: HCT-15
